Data as given in ChEMBL document CHEMBL5260817, “Polyamine-based analogs and conjugates as antikinetoplastid agents” (Eur J Med Chem, 2017).
Several values for one entry are separate records, joined by “and”; a condition that tells them apart may be missing. Identical values can stand only once. Each block holds one compound with its values, some of them ahead of it.

How the values were obtained:
Trypanosoma cruzi [1] = assay: Antiprotozoal activity against Trypanosoma cruzi; assay type: functional, organism-based
Leishmania donovani [2] = assay: Antiprotozoal activity against Leishmania donovani; assay type: functional, organism-based
[3] = tested on: Trypanosoma brucei rhodesiense; assay: Antiprotozoal activity against Trypanosoma brucei rhodesiense; assay type: functional, organism-based
[4] = tested on: Trypanosoma brucei brucei; assay: Antiprotozoal activity against Trypanosoma brucei brucei; assay type: functional, organism-based
Leishmania donovani [5] = assay: Antiprotozoal activity against Leishmania donovani MHOM/IN/1978/UR6 strain promastigotes assessed as parasite growth inhibition; assay type: functional, organism-based
Trypanosoma brucei [6] = assay: Antiprotozoal activity against Trypanosoma brucei; assay type: functional, organism-based
Trypanothione reductase [7] = biological target: T1, Trypanothione reductase (Trypanosoma cruzi, UniProt P28593); assay: Inhibition of Trypanosoma cruzi TryR assessed as inhibition constant
T1 sequence (P28593 whole entry): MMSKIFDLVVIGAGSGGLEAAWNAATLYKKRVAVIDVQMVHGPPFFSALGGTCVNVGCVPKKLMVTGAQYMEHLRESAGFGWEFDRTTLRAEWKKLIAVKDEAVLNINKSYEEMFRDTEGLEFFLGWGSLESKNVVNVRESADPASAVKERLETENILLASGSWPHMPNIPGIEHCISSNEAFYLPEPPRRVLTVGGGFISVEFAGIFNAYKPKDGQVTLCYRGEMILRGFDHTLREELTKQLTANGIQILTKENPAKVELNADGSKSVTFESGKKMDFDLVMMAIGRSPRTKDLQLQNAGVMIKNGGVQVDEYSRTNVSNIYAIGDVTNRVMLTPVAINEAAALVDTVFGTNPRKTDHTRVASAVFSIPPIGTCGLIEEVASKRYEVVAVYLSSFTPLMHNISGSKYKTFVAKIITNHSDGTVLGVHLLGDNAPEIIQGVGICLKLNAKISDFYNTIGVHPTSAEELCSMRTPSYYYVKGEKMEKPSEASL

Leishmania chagasi = assay: Antiprotozoal activity against Leishmania chagasi measured after 3 days by MTT assay; assay type: functional, organism-based; conditions: 72 h
Leishmania amazonensis [8] = assay: Antiprotozoal activity against Leishmania amazonensis measured after 3 days by MTT assay; assay type: functional, organism-based; conditions: 72 h
Leishmania donovani [9] = assay: Antiprotozoal activity against Leishmania donovani amastigotes assessed as growth inhibition measured after 7 days relative to control; assay type: functional; conditions: time 7 day
Trypanothione reductase [10] = biological target: T1, Trypanothione reductase; assay: Inhibition of Trypanosoma cruzi TryR
[11] = Inhibition of TryR (unknown origin) assessed as inhibition constant; set-up: species or system Bacteria
Trypanosoma = assay: Inhibition of Trypanosomal TryS at 10 uM relative to control
Trypanosoma cruzi [12] = assay: Antiprotozoal activity against Trypanosoma cruzi epimastigotes; assay type: functional, organism-based
Trypanothione reductase [13] = biological target: T1, Trypanothione reductase; assay: Inhibition of Trypanosoma cruzi TryR assessed as inhibition constant in presence of NADPH
Leishmania amazonensis [14] = assay: Antiprotozoal activity against Leishmania amazonensis PH8 strain […] assessed as […] at 10 ug/ml relative to control; assay type: functional; conditions: dose 10 µg/ml
Leishmania braziliensis [15] = assay: Antiprotozoal activity against Leishmania braziliensis 2903 strain […] assessed as […] at 10 ug/ml relative to control; assay type: functional; conditions: dose 10 µg/ml
Leishmania donovani [16] = assay: Antiprotozoal activity against Leishmania donovani PP75 strain […] assessed as […] at 10 ug/ml relative to control; assay type: functional; conditions: dose 10 µg/ml
Bacteria = assay: Inhibition of TryR (unknown origin) at 10 uM relative to control
Trypanothione reductase [17] = biological target: Trypanothione reductase (Trypanosoma brucei brucei, UniProt P39051); assay: Inhibition of Trypanosoma brucei TryR assessed as inhibition constant
Sequence of Trypanothione reductase (Trypanosoma brucei brucei, UniProt P39051) (P39051 whole entry): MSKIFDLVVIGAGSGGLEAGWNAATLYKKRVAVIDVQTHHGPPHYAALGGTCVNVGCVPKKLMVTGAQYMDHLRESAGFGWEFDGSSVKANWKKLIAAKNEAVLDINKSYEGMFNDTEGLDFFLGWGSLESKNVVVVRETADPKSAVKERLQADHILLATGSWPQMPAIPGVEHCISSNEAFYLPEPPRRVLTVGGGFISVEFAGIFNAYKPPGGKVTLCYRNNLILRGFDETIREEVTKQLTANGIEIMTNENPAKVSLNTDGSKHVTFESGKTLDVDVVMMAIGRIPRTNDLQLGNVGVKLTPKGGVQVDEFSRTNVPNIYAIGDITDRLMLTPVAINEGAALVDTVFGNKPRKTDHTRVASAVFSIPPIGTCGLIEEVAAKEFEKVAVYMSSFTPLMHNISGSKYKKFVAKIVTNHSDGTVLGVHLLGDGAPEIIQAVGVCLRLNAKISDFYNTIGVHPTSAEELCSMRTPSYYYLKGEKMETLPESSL

Trypanosoma brucei [18] = assay: Trypanocidal activity against Trypanosoma brucei K 243-As-10-3 strain; assay type: functional, organism-based
Trypanosoma brucei [19] = assay: Trypanocidal activity against Trypanosoma brucei K 269 strain; assay type: functional, organism-based
Trypanosoma brucei [20] = assay: Trypanocidal activity against Trypanosoma brucei K 243 strain; assay type: functional, organism-based
Trypanosoma brucei [21] = assay: Trypanocidal activity against Trypanosoma brucei Lab 110 strain; assay type: functional, organism-based
[22] = biological target: Glutathione reductase, mitochondrial (Homo sapiens, UniProt P00390); assay: Inhibition of human glutathione reductase
Sequence of Glutathione reductase, mitochondrial (P00390 whole entry): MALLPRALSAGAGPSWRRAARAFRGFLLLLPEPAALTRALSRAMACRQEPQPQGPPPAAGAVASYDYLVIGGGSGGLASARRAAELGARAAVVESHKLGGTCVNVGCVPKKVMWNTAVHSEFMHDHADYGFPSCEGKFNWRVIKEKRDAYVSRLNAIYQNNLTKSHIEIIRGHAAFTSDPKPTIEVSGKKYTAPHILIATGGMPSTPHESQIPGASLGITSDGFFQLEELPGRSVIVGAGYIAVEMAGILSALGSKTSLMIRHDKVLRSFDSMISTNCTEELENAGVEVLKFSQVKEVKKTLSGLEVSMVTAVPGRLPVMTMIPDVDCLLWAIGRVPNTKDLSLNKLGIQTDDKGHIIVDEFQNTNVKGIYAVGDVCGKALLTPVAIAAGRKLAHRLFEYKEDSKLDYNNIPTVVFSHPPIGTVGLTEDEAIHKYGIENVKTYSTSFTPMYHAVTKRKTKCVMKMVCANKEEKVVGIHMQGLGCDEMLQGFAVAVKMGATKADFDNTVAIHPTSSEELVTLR

Leishmania amazonensis [23] = assay: Antiprotozoal activity against Leishmania amazonensis promastigotes measured after 48 hrs by MTT assay; assay type: functional, organism-based
Leishmania braziliensis [24] = assay: Antiprotozoal activity against Leishmania braziliensis MHOM/PE/84/LC26 amastigotes infected in mouse J774.2 cells measured after 72 hrs; assay type: functional, organism-based; conditions: J774.2, 72 h

SMILES: c1ccc(CNCCCCNCCCCCCCCCCCCNCCCNCc2ccccc2)cc1
- IC50 (Leishmania donovani [5]): 4 µM

SMILES: CCCCCCCCCCCCNCCCCN
- IC50 (Leishmania chagasi): 0.53 µM
- IC50 (Leishmania amazonensis [8]): 5.13 µM

SMILES: COC(=O)/N=C(\NCCCN1CCN(C)CC1)NC(=O)OC
- inhibition (INH) (Leishmania donovani [9]): 85%

SMILES: CCCCCCCCCCCC(=O)NCCCCN
- IC50 (Leishmania chagasi): 10 µM
- IC50 (Leishmania amazonensis [8]): 10 µM

SMILES: NCCNC(=O)CN1C(=O)Cc2c([nH]c3ccc(Br)cc23)-c2ccccc21
- inhibition (Trypanosoma): 80%

SMILES: CCCCCCCCCCCCNCCN
- IC50 (Leishmania chagasi): 0.2 µM
- IC50 (Leishmania amazonensis [8]): 0.94 µM

SMILES: CCCCCCCCCCCCCCC(CN(CC)CC)NC(=O)OC(C)(C)C (centres undefined)
- Activity (Leishmania amazonensis [14]): 80%
- Activity (Leishmania braziliensis [15]): 80%
- Activity (Leishmania donovani [16]): 80%

SMILES: N=C(NCCCNCCCCCCCNCCCNC(=N)NC1CCCCCC1)NC1CCCCCC1
- IC50 [4]: > 15 µM

SMILES: CCCNCCCCCCCCCNC(=O)[C@H](O)[C@H](O)[C@H](O)CO
- IC50 (Leishmania chagasi): 2.5 µM

SMILES: CC(C)=CCC/C(C)=C/CC/C(C)=C/CN1CCNCC1
- IC50 (Leishmania amazonensis [23]): 13 µM

SMILES: CC(C)=CCC/C(C)=C/CC/C(C)=C/CNCCCN
- IC50 (Leishmania amazonensis [23]): 4.9 µM

SMILES: CN1CCN(CCC(=O)Nc2cc(Cl)ccc2Sc2cccc(NC(=O)CCCC(=O)Nc3cccc(Sc4ccc(Cl)cc4NC(=O)CCN4CCN(C)CC4)c3)c2)CC1
- IC50 (Leishmania braziliensis [24]): 0.93 µM
- IC50 (Trypanothione reductase [10]): 0.93 µM

SMILES: CC(C)=CCC/C(C)=C/CC/C(C)=C/CNCCCCN
- IC50 (Leishmania amazonensis [23]): 15 µM

More lines, main results first:

- IC50 (Trypanosoma cruzi [1]): > 40 µM
- IC50 (Leishmania donovani [2]): > 40 µM
- IC50 [3]: > 40 µM
SMILES: NCCCCNCCCNC(=O)C(=O)c1c[nH]c2cc(Br)ccc12

- IC50 [4]: 0.18 µM
SMILES: COc1ccc2c(C(=O)C(=O)NCCCNCCCCCCCCCCCCNCCCNC(=O)C(=O)c3c[nH]c4cc(OC)ccc34)c[nH]c2c1

- IC50 (Trypanosoma brucei [6]): 0.19 µM
SMILES: c1ccc2cc(CNCCCCNCCCNCc3ccc4ccccc4c3)ccc2c1

- Ki (Trypanothione reductase [7]): 15.9 µM
SMILES: CCCNCCCNC(=O)CNC(=O)[C@H](CC(Br)C(Br)C[C@H](NC(=O)OCc1ccccc1)C(=O)NCC(=O)NCCCNCCC)NC(=O)OCc1ccccc1 (some centres undefined)

- Ki (Trypanothione reductase [7]): 2 µM
SMILES: CCCNCCCNC(=O)CNC(=O)[C@H](CCCC[C@H](NC(=O)OCC1c2ccccc2-c2ccccc21)C(=O)NCC(=O)NCCCNCCC)NC(=O)OCC1c2ccccc2-c2ccccc21

- Ki (Trypanothione reductase [7]): 37 µM
SMILES: NCCCNCCCCNCCCNCCCc1ccccc1

- IC50 (Trypanothione reductase [10]): 0.6 µM
SMILES: CCCCN(CCCC)CCCNC(=O)CCCC1=C(CCCC(=O)NCCCN(CCCC)CCCC)C(=O)c2c(O)cccc2C1=O

- Ki [11]: 3.5 µM
SMILES: CN1CCN(CCCNC(=O)/C=C/c2ccc3occ(/C=C/C(=O)NCCCN4CCN(C)CC4)c3c2)CC1

- IC50 (Trypanothione reductase [10]): 5.4 µM
SMILES: NCCCN1CCN(CCCNC2=C(c3c[nH]c4ccccc34)C(=O)N(CCCN3CCN(CCCN)CC3)C2=O)CC1

- IC50 (Trypanosoma cruzi [12]): 14.3 µM
SMILES: CCCCCCCCCCNCCCCCCN

- IC50 [3]: 0.16 µM
SMILES: C(CCCNCCCNCC1CCCCCC1)CCCNCCCNCC1CCCCCC1

- Ki (Trypanothione reductase [13]): > 2000 µM
SMILES: CC(C)(C)OC(=O)N(CCCN)CCCCN

- Ki [11]: 0.076 µM and 0.08 µM
- inhibition (Bacteria): 98%
SMILES: O=C(Cc1c[nH]c2cc(Br)ccc12)NCCCNCCCCNCCCNC(=O)Cc1c[nH]c2cc(Br)ccc12

- Ki (Trypanothione reductase [17]): 12 µM
SMILES: c1ccc(CCCNCCCNCCCCNCCCNCCCc2ccccc2)cc1
- IC50 (Trypanosoma brucei [18]): 1 µM
- IC50 (Trypanosoma brucei [19]): 1 µM
- IC50 (Trypanosoma brucei [20]): 1 µM
- IC50 (Trypanosoma brucei [21]): 1 µM

- IC50 [22]: > 40 µM
SMILES: CCCCN(CCCC)CCCNC(=O)CCCCC1=C(C)C(=O)c2cccc(O)c2C1=O

- IC50 (Trypanothione reductase [10]): 0.8 µM
SMILES: CN1CCN(CCCNC(=O)CCCCCC2=C(CCCCCC(=O)NCCCN3CCN(C)CC3)C(=O)c3c(N)cccc3C2=O)CC1

- Ki (Trypanothione reductase [17]): 0.6 µM
SMILES: c1ccc(CCCNCCCN(CCCCN(CCCNCCCc2ccccc2)CCCc2ccccc2)CCCc2ccccc2)cc1
- IC50 (Trypanosoma brucei [18]): 0.1 µM
- IC50 (Trypanosoma brucei [19]): 0.1 µM
- IC50 (Trypanosoma brucei [20]): 0.1 µM
- IC50 (Trypanosoma brucei [21]): 0.1 µM

- Ki (Trypanothione reductase [13]): > 2000 µM
SMILES: CC(=O)N(CCCN)CCCCN

- IC50 [4]: 0.04 µM
SMILES: CC[C@H](C)CNCCCNCCCCCCCNCCCNC[C@@H](C)CC
